Two compounds from US20030073832A1, “Novel aminophenyl ketone derivatives” (priority 2001, published 2003) can be followed below.

For experiment [1], the system named is PMN-superoxide. Put plainly: Inhibition of PMN superoxide secretion (ferricytochrome C reduction). The experiment is classed as cell-based. The settings on record: human PMN granulocytes primed with TNF-α, stimulated with fMLP; read-out: The median inhibition concentration (IC50, nM) of PMN-superoxide. How it is done:
The compounds of the present invention also show similar activities in the ability to inhibit PMN (polymorphonuclear) superoxide secretion which is also indicative of potentially useful anti-inflammatory drugs. The compounds were tested using the following procedure:
Human polymorphonuclear (PMN) granulocytes were isolated from human blood by dextran sedimentation, Lymphoprep® fractionation and hypotonic lysis of contaminating erythrocytes.
Superoxide anion generation was measured as the superoxide dismutase inhibitable reduction of ferricytochrome C (Madhu, S.B. et al, Inflammation, 16, 241, (1992)). The cells were suspended in Hanks' balanced salt solution, and incubated for 10 minutes at 37° C. with test compounds. The cells were primed by the addition of TNF-α (3 ng/ml final concentration) for 10 minutes, and then ferricytochrome C, (final concentration 750 μg/ml), bovine serum albumin (BSA, final concentration 1 mg/ml) and formyl-methionyl-leucyl-phenylalanine (fMLP, final concentration 10^−7 M) were added for 3 minutes. The cells were chilled on ice, and were spun down. The optical densities in the cell-free supernatant was measured in a spectrophotometer. The median inhibitory concentration (IC50) of the compounds was calculated.

Experiment [2] has as its system IL-1β. Put plainly: Inhibition of IL-1β secretion from LPS stimulated peripheral blood mononuclear cells. The following applies: PBMC; LPS stimulated human peripheral blood mononuclear cells, 18 hours, ELISA; read-out: The median inhibition concentration (IC50, nM) of IL-1β. Type of experiment: cell-based. How it is done: (§1) To study the effect of compounds of the present invention in vitro the inhibition of the IL-1β and TNF-α secretion was measured using the following procedure:
(§2) Cytokine production was measured in the media from lipopolysaccharide (LPS) stimulated peripheral blood mononuclear cells. The mononuclear cells were isolated from human peripheral blood by Lymphoprep® (Nycomed, Norway) fractionation and suspended in RPMI 1640 (growth medium) with foetal calf serum (FCS, 2%), at a concentration of 5×10^5 cells/ml. The cells were incubated in 24-well tissue culture plates in 1 ml aliquots. Test compounds were dissolved in dimethylsulfoxide (DMSO, 10 mM) and were diluted with the medium. Compounds were added to the cells for 30 minutes, then LPS ([…] final concentration) was added. The plates were incubated for 18 hours, and the concentration of IL-1β and TNF-α in the medium was determined by enzyme-linked immunosorbent assays. The median inhibitory concentrations (IC50) of the compounds were calculated.
In general terms: An ELISA detects its analyte on a solid surface through an enzyme-linked reagent.

Experiment [3] relates to TNF-α. Put plainly: Inhibition of TNF-α secretion from LPS stimulated peripheral blood mononuclear cells. Type of experiment: cell-based. The following applies: PBMC; LPS stimulated human peripheral blood mononuclear cells, 18 hours, ELISA; read-out: The median inhibition concentration (IC50, nM) of TNF-α. How it is done:
as §1, §2

In experiment [4] the target is T1, p38α MAP kinase (Homo sapiens, UniProt Q16539).
T1 construct: made in house; host or cells: COS-1 cells (transient co-transfection, anti-FLAG immunoprecipitation)
Nature of the experiment: p38α MAP kinase assay. Type of experiment: biochemical. The following applies: immunoprecipitated activated FLAG-p38α from COS-1 cells, GST-ATF-2 substrate; read-out: p38 MAP kinase IC50. How it is done:
COS-1 cells (derived from African green monkey kidney fibroblast-like cell containing wild-type T antigen under control of the SV40 promotor) were obtained from ATCC (ATCC no. CRL-1650) and grown in growth medium (DMEM without phenolred, 10% FCS, 2 mM L-glutamine, 100U penicillin and 100 μg streptomycin/ml) at 37° C. with 5% CO2. The cells were passaged twice a week by trypsination (0.25% trypsin, 1 mM EDTA in PBS) and were split 1:10. The medium was changed every second or third day. The cell line was regularly tested with the Mycoplasma PCR Primer Set (Stratagene) and found to be free of Mycoplasma. Tissue culture media, FCS, L-glutamine and penicilin and streptomycin are from Bribco BRL, Gaithersburg, Md., USA.
Transient Expression of COS-1 Cells
On day one COS-1 cells were seeded in 143 cm^2 petridish with a density of 2×10^4celler/cm^2 in growth medium. At day 2 the cells were co-transfected with 5 μg (total) of experimental plasmid DNA, expressing the FLAG-p38α and FLAG-MKK6(EE). The plasmids were introduced into the COS-1 cells in serum-free medium using DOTAP™ (Boehringer-Mannheim, Mannheim, Germany). Plasmid DNA was prepared and purified using the QIAGEN EndoToxin-free Maxiprep-500 kit (Hilden, Germany). Briefly, DNA and DOTAP™ were mixed for exactly 15 min. at 37° C. in the CO2 incubator. […]

T1 sequence (Q16539 whole entry): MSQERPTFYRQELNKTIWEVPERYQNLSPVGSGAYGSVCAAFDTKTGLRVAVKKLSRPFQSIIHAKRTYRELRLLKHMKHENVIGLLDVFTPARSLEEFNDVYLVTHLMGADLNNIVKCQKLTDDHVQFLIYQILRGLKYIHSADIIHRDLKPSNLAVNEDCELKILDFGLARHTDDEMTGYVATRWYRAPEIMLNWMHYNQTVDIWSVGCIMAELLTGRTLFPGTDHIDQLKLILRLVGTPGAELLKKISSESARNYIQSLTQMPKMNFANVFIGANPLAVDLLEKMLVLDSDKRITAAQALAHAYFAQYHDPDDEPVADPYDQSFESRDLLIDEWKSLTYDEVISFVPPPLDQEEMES

For `Cc1ccccc1Nc1ccc(C(=O)c2sccc2Cl)c(Cl)c1` [Compound 101, 4-(2-tolylamino)-2-chlorophenyl 3-chloro-2-thienyl ketone], the IC50 in experiment [1] came out at 6.3 nM; in experiment [2] it was 72 nM; in experiment [3] it was 17 nM; in experiment [4], 93.3 nM.
In the case of `Cc1ccccc1C(=O)c1ccc(Nc2ccccc2N)cc1Cl` [Ref. comp., 4-(2-aminophenylamino)-2-chloro-2′-methylbenzophenone, reference compound], the IC50 stood at 5 nM in experiment [1], 13 nM in experiment [2] and 7.1 nM in experiment [3].
